Tests used:
RAW264.7 macrophages = assay: Foam cell formation (ox-LDL, BODIPY 493/503 staining) in RAW264.7 macrophages; format: cell-based
Method: RAW264.7 cells were obtained from the National Infrastructure of Cell Line Resource of Beijing, China, and the cells used for the experiment were cultured for at least three passages. Dulbecco’s Modified Eagle’s Medium (DMEM)-F12 medium containing 10% fetal bovine serum (FBS) was employed to culture the RAW264.7 cells. RAW264.7 cells were incubated at 37°C with 5% carbon dioxide. The RAW264.7 cells were plated at 2.5×10^5 cells/well (6-well plates), 6.0×10^4 cells/well (24-well plates), and 10^4 cells/well (96-well plates). The RAW264.7 cells were plated and grown overnight; then the medium was removed and fresh DMEM-F12 contained with 0.1% DMSO (control; n=3 ) or TPHP at the concentrations of 1–20,000 nM ( n=3 per group) was added. […] Then the cells were used for the quantitative reverse transcription (qRT)-PCR, cellular cholesterol efflux assay, and foam cell formation experiment.
RAW264.7 cells or mouse peritoneal macrophages were plated in 24-well plates at 6.0×10^4 cells/well and grown overnight. Then the medium was removed and fresh DMEM-F12 containing 10% FBS, 20μg/mL oxidized low-density lipoprotein (ox-LDL), and 0.1% DMSO (control; n=3 ) or TPHP at the concentration of 1–20,000 nM ( n=3 per group) was added. The cells were washed with PBS, followed by fixing in 4% paraformaldehyde for 30 min and staining with boron-dipyrromethene (BODIPY) 493/503 ( 20μg/mL ) and 4′,6-diamidino-2-phenylindole (DAPI; 100 ng/mL ) for 10 min. Foam cell formation was analyzed by high-content microscopy using ImageXpress® Micro XL (Molecular Devices). From each well, 25 image fields were scanned, and MetaXpress® (Molecular Devices) was used to quantify compartmentalized changes in the fluorescence of each cell.

human LXRα = biological target: T1, human LXRα (Homo sapiens, UniProt Q13133); assay: cell-based
T1 construct: expressed in transfected cells; host or cells: Saccharomyces cerevisiae Y187
T1 sequence (Q13133 205-447): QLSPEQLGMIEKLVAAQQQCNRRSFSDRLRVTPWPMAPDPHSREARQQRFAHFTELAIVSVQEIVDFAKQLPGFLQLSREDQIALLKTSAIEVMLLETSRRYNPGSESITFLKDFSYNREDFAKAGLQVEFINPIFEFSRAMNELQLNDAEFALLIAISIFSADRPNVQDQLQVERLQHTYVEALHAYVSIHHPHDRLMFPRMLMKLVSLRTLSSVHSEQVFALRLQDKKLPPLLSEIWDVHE

[1] = Plasma lipids in ApoE−/− mice; format: in vivo, mouse; conditions: 13 weeks, mean±SE
From the text: All experiments related to animals were approved by the institutional animal care and use committee of Peking University and followed the guidelines for animal experiments of the university as well as for experimental animals in China. The biological effect size of the animal experiments was based on the previous paper ([Negro Silva et al. 2017]). C57BL/6 (12 weeks old) and ApoE^−/− mice (12 weeks old) were obtained from the Beijing Vital River Laboratory Animal Technology Company. Mice used in the experiments were acclimated to the housing unit 2 weeks before they were used for experiments, and they were randomly assigned to control or TPHP treatment groups. Five animals were housed to a cage, and mice were acclimatized to the controlled environment (temperature: 22±2°C; relative humidity: 40–60%; artificial lighting: 12 h:12 h light/dark). Mice received diet and drinking water ad libitum. Body weight (BW) was measured every week during the dosing period. Forty-five C57BL/6 mice and 27 ApoE^−/− mice were used in this study. Animal protocol 1: Male C57BL/6 mice (five mice per group) were fed a basic diet (Laboratory Animal Center of the Academy of Military Medical Sciences, China). On Day 0, mice were stimulated with paraffin oil by intraperitoneal injection. From Day 1 to Day 7, mice were exposed to corn oil (control) or TPHP (dissolved in corn oil) at 40 or 200mg/kg BW by daily oral gavage. The volume of the corn oil or TPHP in corn oil administered was 5mL/kg BW. On Day 8, after the mice were anesthetized by sodium pentobarbital via intramuscular injection, peritoneal macrophages were harvested from peritoneal lavage with 4mL pre-warmed DMEM-F12 (containing 10% FBS) using a 25-gauge needle; 5–10 min later, 3–3.5mL peritoneal fluid was collected, and the cells were isolated by centrifuge at 1,000 rpm for 5 min. The isolated cells were cultured in DMEM-F12 containing 10% FBS. After 4 h, the medium was changed, and the cells were cultured overnight. The cells were then used for the qRT-PCR, cellular cholesterol efflux assay, and foam cell formation experiment. The exposure period used in the present study was based on previous studies, in which peritoneal macrophages were harvested from mice treated with chemicals for 4–14 d ([Li et al. 2009]; [Saeed et al. 2012]). Considering that this study assessed the effects of short-term exposure to TPHP, whereas humans are exposed to TPHP over a lifelong period, the present study used exposure doses that were higher than that of human exposure from house dust. Animal protocol 2: Because wild-type mice are highly resistant to atherosclerosis, a well-established atherosclerosis model, the ApoE^−/− mouse, was used in the study. The male ApoE^−/− mice (nine mice per group) were fed a high-fat diet (D12108C; Research Diets Inc.) and exposed to corn oil (control) or TPHP (dissolved in corn oil) at 10 or 40mg/kg BW for 13 weeks by oral gavage. Mice were sacrificed 24 h after the last day of exposure with an overdose of sodium pentobarbital via intraperitoneal injection. Because the formation of atherosclerosis lesions required a long time, the exposure period used in the present study was based on previous studies in which the effects of chemicals on formation of atherosclerosis lesions were observed after an exposure period of 12–15 weeks ([Li et al. 2009]; [Negro Silva et al. 2017]; [Shi et al. 2016]). The doses of TPHP used in the ApoE^−/− model mouse referred to previous studies in which mice were treated with TPHP at 50–300mg/kg BW to observe significant adverse effects, including decreased testosterone levels and hypertriglyceridemia ([Chen et al. 2015]; [Morris et al. 2014]).
Treated ApoE^−/− mice ( n=9 per group) were fasted overnight, and heart puncture was used to collect the blood soon after each animal was sacrificed. The blood samples were then centrifuged ( 1,000×g , 10 min, 4°C) to separate the plasma, and the plasma was stored at −80°C . […]

[2] = 40mg/kg, n=9, p<0.05 vs control

O=P(Oc1ccccc1)(Oc1ccccc1)Oc1ccccc1 [TPHP, triphenyl phosphate]
Intensity of foam cell staining relative to control (RAW264.7 macrophages; 100 nM, p<0.01): 1.64±0.02 fold
Intensity of foam cell staining relative to control (RAW264.7 macrophages; 1,000 nM, p<0.01): 1.67±0.14 fold
Intensity of foam cell staining relative to control (RAW264.7 macrophages; 5,000 nM, p<0.05): 1.78±0.31 fold
Intensity of foam cell staining relative to control (RAW264.7 macrophages; 10,000 nM, p<0.05): 2.08±0.45 fold
Intensity of foam cell staining relative to control (RAW264.7 macrophages; 20,000 nM, p<0.05): 2.09±0.52 fold
IC50 (human LXRα): 1480 nM
Contribution to the LXRα-antagonist activity of SRM2585 (human LXRα; dust standard reference material SRM2585): 33.83%
Share of the LXRα-antagonist activity of indoor dust explained by the chemical (human LXRα; range over indoor dust samples (Table S4)): 0.19–51.07%
Plasma HDL-C ([1]; 10mg/kg, n=9): 1.13 ± 0.05 mmol/L
Plasma LDL-C ([1]; 10mg/kg, n=9): 10.53 ± 0.32 mmol/L
Plasma cholesterol ([1]; 10mg/kg, n=9): 26.15 ± 1.34 mmol/L
Plasma triglycerides ([1]; 10mg/kg, n=9): 0.92 ± 0.06 mmol/L
Plasma HDL-C ([1]; 40mg/kg, n=9): 1.29 ± 0.05 mmol/L
Plasma LDL-C ([1]; 40mg/kg, n=9): 10.27 ± 0.22 mmol/L
Plasma cholesterol [1, 2]: 28.83 ± 1.90 mmol/L
Plasma triglycerides [1, 2]: 1.06 ± 0.12 mmol/L

From PMC6927504, “Screening of House Dust from Chinese Homes for Chemicals with Liver X Receptors Binding Activities and Characterization of Atherosclerotic Activity Using an in Vitro Macrophage Cell Line and ApoE^−/− Mice” (Environmental Health Perspectives, 2019)
